Experimental findings from publication PMC8498988, “Scaffold Hybridization Strategy Leads to the Discovery of Dopamine D3 Receptor-Selective or Multitarget Bitopic Ligands Potentially Useful for Central Nervous System Disorders” (ACS Chemical Neuroscience, 2021) are described below.

One test deals with D3R (Homo sapiens, UniProt P35462). Put plainly: Radioligand competition binding at human D3R ([3H]N-methylspiperone, HEK293 membranes). Set-up: expressed in transfected cells; host or cells: HEK293. Particulars: for Ki: [3H]N-methylspiperone, HEK 293 cells expressing hD3R, read-out: Ki ± SEM, D3R; for D2/D3: ratio of Ki values D2R/D3R; for D4/D3: ratio of Ki values D4R/D3R. Here is the method: (§1) The novel hybrid derivatives 3–11 were tested at hD2R, hD3R, or hD4R stably expressed in HEK293 cells by competition binding assays, using [^3H]N-methylspiperone as the radioligand, to evaluate their D2-like affinity and subtype selectivity, following the previously reported procedures.[41],[45],[46]
(§2) Binding at dopamine D2-like receptors was determined using previously described methods.[41],[45],[46] Membranes were prepared from HEK293 cells stably expressing human D2, D3, or D4, grown in a 50:50 mix of Dulbecco’s minimal essential medium (DMEM) and Ham’s F12 culture media, supplemented with 20 mM HEPES, 2 mM L-glutamine, 0.1 mM nonessential amino acids, 1× antibiotic/antimycotic, 10% heat-inactivated fetal bovine serum, and 200 μg/mL hygromycin (Life Technologies, Grand Island, NY) and kept in an incubator at 37 °C and 5% CO2. Upon reaching 80–90% confluency, the cells were harvested using premixed Earle’s Balanced Salt Solution (EBSS) with 5 μM EDTA (Life Technologies) and centrifuged at 3000 rpm for 10 min at 21 °C. The supernatant was removed, and the pellet was resuspended in 10 mL hypotonic lysis buffer (5 mM MgCl2, 5 mM Tris, pH 7.4 at 4 °C) and centrifuged at 20,000 rpm for 30 min at 4 °C. The pellet was then resuspended in fresh EBSS buffer made from 8.7 g/L Earle’s Balanced Salts without phenol red (US Biological, Salem, MA), 2.2 g/L sodium bicarbonate, pH to 7.4. A Bradford protein assay (Bio-Rad, Hercules, CA) was used to determine the protein concentration, and membranes were diluted to 500 μg/mL and stored at −80 °C for later use. Radioligand competition binding experiments were conducted using thawed membranes. Test compounds were freshly dissolved in 30% DMSO and 70% H2O to a stock concentration of 100 μM. To assist the solubilization of free-base compounds, 10 μL of glacial acetic acid was added along with DMSO. Each test compound was then diluted into 13 half-log serial dilutions using 30% DMSO vehicle; the final test concentrations ranged from 10 μM to 10 pM. The previously frozen membranes were diluted in fresh EBSS to a 100 μg/mL (for D2 or D3) or 200 μg/mL (D4) stock for binding. Radioligand competition experiments were conducted in glass tubes containing 300 μL of fresh EBSS buffer, 50 μL of diluted test compound, 100 μL of membranes (10 μg of total protein for D2 or D3 and 20 μg of total protein for D4), and 50 μL of [^3H]N-methylspiperone (0.4 nM final concentration; PerkinElmer). Nonspecific binding was determined using 10 μM butaclamol (Sigma-Aldrich, St. Louis, MO), and total binding was determined with the 30% DMSO vehicle. All compound dilutions were tested in triplicate and the reaction was incubated for 1 h at room temperature. The reaction was terminated by filtration through Whatman GF/B filters, presoaked for 1 h in 0.5% polyethylenimine, using a Brandel R48 filtering manifold (Brandel Instruments, Gaithersburg, MD). The filters were washed three times with 3 mL of ice-cold EBSS buffer and transferred to scintillation vials. CytoScint liquid scintillation cocktail (3 mL, MP Biomedicals, Solon, OH) was added, and vials were counted using a PerkinElmer Tri-Carb 2910 TR liquid scintillation counter (Waltham, MA).
A general note: In a radioligand displacement assay an active substance lowers the binding of a labelled ligand.

The target in the next test is T1, 5-HT2CR (Homo sapiens, UniProt P28335).
T1 sequence (P28335 33-458): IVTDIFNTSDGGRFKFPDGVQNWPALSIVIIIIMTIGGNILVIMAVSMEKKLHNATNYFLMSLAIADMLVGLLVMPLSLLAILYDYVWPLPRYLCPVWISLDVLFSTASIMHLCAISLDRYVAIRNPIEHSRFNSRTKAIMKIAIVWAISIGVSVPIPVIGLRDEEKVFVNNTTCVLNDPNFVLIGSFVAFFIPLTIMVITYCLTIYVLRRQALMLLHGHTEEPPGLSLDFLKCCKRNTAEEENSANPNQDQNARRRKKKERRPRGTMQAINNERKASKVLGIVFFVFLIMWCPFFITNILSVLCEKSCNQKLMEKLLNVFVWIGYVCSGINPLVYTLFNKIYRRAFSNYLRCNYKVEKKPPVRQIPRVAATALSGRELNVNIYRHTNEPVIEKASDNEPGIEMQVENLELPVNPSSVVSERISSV
Put plainly: 5-HT2C IP-1 formation (HEK-h5HT2C cells). Particulars: for % stimul., 5-HT2C IP-1 formation: agonist mode, normalized to the maximal stimulation by serotonin; for functional behavior at 5-HT2CR: in words.

For a further test, the target named is T2, D4R (Homo sapiens, UniProt P21917).
T2 sequence (P21917 1-419): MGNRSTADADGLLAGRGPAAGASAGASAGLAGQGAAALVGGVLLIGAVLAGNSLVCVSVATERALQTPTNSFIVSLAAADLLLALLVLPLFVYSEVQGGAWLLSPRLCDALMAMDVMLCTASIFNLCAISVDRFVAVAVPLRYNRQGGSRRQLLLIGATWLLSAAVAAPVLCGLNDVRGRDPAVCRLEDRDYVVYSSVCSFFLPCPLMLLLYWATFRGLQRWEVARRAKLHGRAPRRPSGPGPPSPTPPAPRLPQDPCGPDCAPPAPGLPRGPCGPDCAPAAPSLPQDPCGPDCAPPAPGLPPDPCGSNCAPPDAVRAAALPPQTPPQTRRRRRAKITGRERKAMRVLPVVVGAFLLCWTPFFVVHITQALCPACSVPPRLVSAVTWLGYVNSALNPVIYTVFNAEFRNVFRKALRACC
Kind of test: Radioligand competition binding at human D4R ([3H]N-methylspiperone, HEK293 membranes). Also noted: expressed in transfected cells; host or cells: HEK293. Particulars: HEK 293 cells expressing hD4R, read-out: Ki ± SEM, D4R. The method, then:
as §1, §2

Each structure is given as a SMILES string.

Chain of D3R (P35462 whole entry): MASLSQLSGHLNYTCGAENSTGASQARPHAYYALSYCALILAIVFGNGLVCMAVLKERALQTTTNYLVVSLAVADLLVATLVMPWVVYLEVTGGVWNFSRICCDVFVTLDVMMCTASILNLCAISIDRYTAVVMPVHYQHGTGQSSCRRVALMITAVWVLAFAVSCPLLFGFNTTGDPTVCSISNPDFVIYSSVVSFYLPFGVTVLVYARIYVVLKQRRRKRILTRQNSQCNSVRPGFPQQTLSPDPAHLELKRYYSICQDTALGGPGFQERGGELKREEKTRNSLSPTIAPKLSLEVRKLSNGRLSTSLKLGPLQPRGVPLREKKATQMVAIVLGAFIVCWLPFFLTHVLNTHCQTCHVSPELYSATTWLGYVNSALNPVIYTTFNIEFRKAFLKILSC
Method for 5-HT2CR: HEK-h5HT2A or HEK-h5HT2C cells are used as the tissue source. The day before the experiment, cells are plated in 24-well plates at a density of 400,000 cells per well using DMEM supplemented with charcoal-stripped FetalClone. Drugs are made up in stimulation buffer supplied in the kit. Medium is removed from the well, test compounds or serotonin or antagonist or buffer is added, and the cells are incubated for 1 h. The cells are lysed for 30 min, and 50 μL of cell lysate is added to the IP-1 plates. After the addition of appropriate antibodies, the plates are incubated for 3 h, washed six times, incubated with the substrate for 20 min, and, after termination of the reaction, the plate is read on a plate reader at 450 nm with a correction at 620 nm.

The term Ki denotes the dissociation constant of the complex between target and ligand, obtained from inhibition or displacement. As a reminder, the EC50 is the concentration giving half of the maximal effect. Read a low EC50 as a more potent agent. As to `O=C(NCCCCN1CCN(c2cccc(Cl)c2Cl)CC1)C1COC(c2ccccc2)(c2ccccc2)CO1` (stereo not drawn) [compound 6, N-(4-(4-(2,3-Dichlorophenyl)piperazin-1-yl)butyl)-5,5-diphenyl-1,4-dioxane-2-carboxamide], on D3R, the Ki stood at 1.58 ± 0.24 nM, the D2/D3 turned out to be 18 and the D4/D3 was 35. In addition, at 5-HT2CR, the EC50 is 380 ± 130 nM; the “% stimul., 5-HT2C IP-1 formation” value was 33%; the “functional behavior at 5-HT2CR” value is “D3R and 5-HT2CR partial agonists with high and low potency, respectively”. For the same compound, the inhibitory constant (Ki) at D4R amounted to 54.6 ± 7.3 nM.

On to `O=C(NCCCCN1CCN(c2cccc(Cl)c2Cl)CC1)C1COCC(c2ccccc2)(c2ccccc2)O1` (stereo not drawn) [compound 3, N-(4-(4-(2,3-Dichlorophenyl)piperazin-1-yl)butyl)-6,6-diphenyl-1,4-dioxane-2-carboxamide], for which, at D3R, the Ki was 2.39 ± 0.69 nM, the D2/D3 is listed as 143 and the D4/D3 was found to be 566. For the same compound, the Ki on D4R was 1350 ± 449 nM.

For the compound `O=C(NCCCCN1CCN(c2cccc(Cl)c2Cl)CC1)C1COc2ccccc2O1` (stereo not drawn) [compound 9, N-(4-(4-(2,3-Dichlorophenyl)piperazin-1-yl)butyl)-2,3-dihydrobenzo[b][1,4]dioxine-2-carboxamide], at D3R, the Ki was found to be 2.16 ± 0.63 nM, the D2/D3 came to 22 and the D4/D3 is on record as 35. On 5-HT2CR, the midpoint of the response, the EC50, lay at 750 ± 280 nM; the “% stimul., 5-HT2C IP-1 formation” value was found to be 37%; the “functional behavior at 5-HT2CR” value was “D3R and 5-HT2CR partial agonists with high and low potency, respectively”. Besides, the Ki on D4R amounted to 74.7 ± 24.5 nM.
